Data from patent US20230346803A1, “COMPOSITIONS OF BERBERINE URSODEOXYCHOLATE AND METHODS THEREOF FOR TREATING PRIMARY SCLEROSING CHOLANGITIS” (SHENZHEN HIGHTIDE BIOPHARMACEUTICAL LTD., priority 2021, published 2023).

System: adult subjects with PSC
Test: Phase 2, multicenter, dose-ranging, 18-week, placebo-controlled study of BUDCA in PSC
Type: in vivo, human
Conditions: for Share of subjects achieving a 25% reduction in ALP: 0 subjects on placebo; for Percent change from Baseline in GGT at Week 6: all subjects
Experimental: A Phase 2, multicenter, dose-ranging, 18-week study was conducted comparing two dose regimens of BUDCA (500 mg BID and 1,000 mg BID) to placebo in adult subjects with PSC.
BUDCA drug product (also herein referred to as HTD1801) is a film-coated tablet containing 250 mg of berberine ursodeoxycholate.
The clinical study design consisted of an initial randomized, double-blind, placebo-and dose-controlled, parallel-group period (Period 1), followed by a dose-controlled extension period (Period 2), which is followed by a placebo-controlled randomized withdrawal period (Period 3). • Period 1: Subjects were randomized to receive BID doses of 500 mg, 1,000 mg, or matching placebo for 6 weeks. The primary analysis was based on this initial 6-week randomized, double-blind, placebo- and dose-controlled, parallel-group period. • Period 2: Subjects previously randomized to 500 mg BID or 1,000 mg BID continued for 6 more weeks at that previous dose, while subjects previously randomized to placebo were re-randomized to receive 6 weeks of either 500 mg BID or 1,000 mg BID. • Period 3: Subjects were re-randomized to either continue on the active treatment they had received in Period 2 or be assigned to placebo.
Patients with a known diagnosis of PSC based upon magnetic resonance cholangiopancreatography (MRCP) or endoscopic retrograde cholangiopancreatography (ERCP) findings were eligible for inclusion in this study. To be eligible for randomization into the study, serum ALP levels at screening had to be elevated at least above 1.5 times the upper limit of normal (ULN).
The primary endpoint was the absolute change in ALP from Baseline to Week 6 (Period 1).
For this study, 88 subjects with PSC were screened, 59 were randomized, 55 received at least 1 dose of study drug (safety population), and 54 had at least 1 post-dose efficacy assessment (modified intent-to-treat (mITT) population).
All statistical tests were two-sided with an alpha level of 0.05. The statistical analyses were conducted with the SAS® System version 9.4 or higher. All analyses were subject to formal verification procedures.

[1] = Baseline ALP <3x ULN, 500 mg BID (n=8)
[2] = Baseline ALP <3x ULN, 1,000 mg BID (n=16)
[3] = Baseline ALP ≥3x ULN, 500 mg BID (n=7)
[4] = Baseline ALP ≥3x ULN, 1,000 mg BID (n=8)

## COc1ccc2cc3[n+](cc2c1OC)CCc1cc2c(cc1-3)OCO2.C[C@H](CCC(=O)[O-])[C@H]1CC[C@H]2[C@@H]3[C@@H](O)C[C@@H]4C[C@H](O)CC[C@]4(C)[C@H]3CC[C@]12C [BUDCA, berberine ursodeoxycholate]
500 mg BID, prior UDCA use, week 6
  Share of subjects achieving a 25% reduction in ALP: 33%
500 mg BID
  Percent change from Baseline in GGT at Week 6: -21%
500 mg BID, subjects without prior UDCA use
  Percent change in GGT at Week 6: -42%
1,000 mg BID
  Percent change from Baseline in GGT at Week 6: -40%
1,000 mg BID, subjects without prior UDCA use
  Percent change in GGT at Week 6: -67%
[1]
  Mean (SD) change from Baseline to Week 6 in ALP: -13 (118) U/L
  Mean (SD) change from Baseline to Week 6 in ALT: -63 (104) U/L
  Mean (SD) change from Baseline to Week 6 in AST: -18 (41) U/L
[2]
  Mean (SD) change from Baseline to Week 6 in ALP: -20 (106) U/L
  Mean (SD) change from Baseline to Week 6 in ALT: -30 (72) U/L
  Mean (SD) change from Baseline to Week 6 in AST: -14 (26) U/L
[3]
  Mean (SD) change from Baseline to Week 6 in ALP: -138 (134) U/L
  Mean (SD) change from Baseline to Week 6 in ALT: -48 (74) U/L
  Mean (SD) change from Baseline to Week 6 in AST: -37 (49) U/L
[4]
  Mean (SD) change from Baseline to Week 6 in ALP: -185 (143) U/L
  Mean (SD) change from Baseline to Week 6 in ALT: -80 (56) U/L
  Mean (SD) change from Baseline to Week 6 in AST: -37 (39) U/L
Period 1, both doses, compared to an increase in the placebo group
  Absolute change in ALP from Baseline to Week 6 (primary efficacy endpoint): clinically meaningful and statistically significant decrease in ALP
Period 3, pooled active-to-active groups, depending on the week examined
  Number of subjects achieving ALP <1.5 x ULN: 4-6
Subject 18-003, 1,000 mg BID, Week 18
  Reduction of GGT: ~ 10%
Subject 18-003, 1,000 mg BID, after Week 12 through Week 18, baseline 1.8-fold ULN, prior UDCA 15 mg/kg
  ALP relative to ULN: below 1.5 fold ULN
Subject 23-004, 1,000 mg BID, Week 18
  Reduction of GGT: ~50%
Subject 23-004, 1,000 mg BID, Week 18, baseline 2.6-fold ULN, prior UDCA 12 mg/kg
  ALP relative to ULN: below 1.6 fold ULN
Week 6
  Response rate with 1,000 mg BID compared with 500 mg BID, each efficacy endpoint: ~ 2 fold
Active treatment, subjects without prior UDCA use
  Share of subjects achieving a 25% reduction in ALP: Over half
All treatments throughout the study
  Mean total bilirubin, albumin, and platelets: remained stable and within normal range
Subjects with PSC, 500 mg BID and 1,000 mg BID, up to 18 weeks
  Safety and tolerability: safe and generally well tolerated
